# What was measured:
# Type in all cases: cell-based
# [1] = tested on: Klebsiella pneumonia; experiment: MIC against Gram-negative bacteria: Klebsiella pneumonia; settings: 5×10^5 CFU/mL
# Summary of the method: (§1)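 Antibacterial activity of purified human EGF domain proteins: two-fold concentration series, triplicate wells, LB broth, 5×10^5 CFU/mL bacteria, 37° C shaking incubation. The lowest concentration without growth defines the MIC.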
# [2] = tested on: Aeromonas hydrophila; experiment: MIC against Gram-negative bacteria: Aeromonas hydrophila; settings: 5×10^5 CFU/mL
# Summary of the method: as §1
# [3] = tested on: Proteus mirabilis; experiment: MIC against Gram-negative bacteria: Proteus mirabilis; settings: 5×10^5 CFU/mL
# Summary of the method: as §1
# [4] = tested on: Citrobacter diversus; experiment: MIC against Gram-negative bacteria: Citrobacter diversus; settings: 5×10^5 CFU/mL
# Summary of the method: as §1
# [5] = tested on: Enterobacter cloacae; experiment: MIC against Gram-negative bacteria: Enterobacter cloacae; settings: 5×10^5 CFU/mL
# Summary of the method: as §1
# [6] = tested on: E. coli DH5α; experiment: Antibacterial activity: MIC and growth curve against E. coli DH5α in 96-well plate; settings: minimal inhibitory concentration against E. coli DH5α; 96-well plate, 5×10^5 CFU/mL, 37° C., judged after 8 h
# Summary of the method: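 Log-phase DH5α (OD600 about 0.5, 37° C, 185 rpm in LB) was pelleted, resuspended in fresh LB and seeded at 5×10^5 CFU/mL with recombinant protein at 50, 25 and 12.5 μg/mL (two-fold series), in triplicate. Plates were shaken at 175 rpm, 37° C, and OD600 was read every 30 min. MIC was the lowest concentration with no growth.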
# [7] = tested on: Serratia marcescens; experiment: MIC against Gram-negative bacteria: Serratia marcescens; settings: 5×10^5 CFU/mL
# Summary of the method: as §1
# [8] = tested on: E. coli BL21; experiment: MIC against Gram-negative bacteria: E. coli BL21; settings: 5×10^5 CFU/mL
# Summary of the method: as §1
# [9] = tested on: Pseudomonas aeruginosa; experiment: MIC against Gram-negative bacteria: Pseudomonas aeruginosa; settings: 5×10^5 CFU/mL
# Summary of the method: as §1
# [10] = tested on: Proteus vulgaris; experiment: MIC against Gram-negative bacteria: Proteus vulgaris; settings: 5×10^5 CFU/mL
# Summary of the method: as §1
# [11] = tested on: Moraxella catarrhalis; experiment: MIC against Gram-negative bacteria: Moraxella catarrhalis; settings: 5×10^5 CFU/mL
# Summary of the method: as §1
# [12] = K. pneumonia, 10 h cultivation at 37° C.
# [13] = A. hydrophila, 10 h cultivation at 37° C.
# [14] = P. mirabilis, 10 h cultivation at 37° C.
# [15] = C. diversus, 10 h cultivation at 37° C.
# [16] = E. cloacae, 10 h cultivation at 37° C.
# [17] = S. marcescens, 10 h cultivation at 37° C.
# [18] = E. coli BL21, 10 h cultivation at 37° C.
# [19] = P. aeruginosa, 10 h cultivation at 37° C.
# [20] = P. vulgaris, 10 h cultivation at 37° C.
# [21] = M. catarrhalis, 10 h cultivation at 37° C.
# [22] = 10 h cultivation at 37° C., two-fold serial dilution
# [23] = Klebsiella pneumonia, 96-well plate, 37° C., 10 h
# [24] = Aeromonas hydrophila, 96-well plate, 37° C., 10 h
# [25] = Proteus mirabilis, 96-well plate, 37° C., 10 h
# [26] = Citrobacter diversus, 96-well plate, 37° C., 10 h
# [27] = Enterobacter cloacae, 96-well plate, 37° C., 10 h
# [28] = Serratia marcescens, 96-well plate, 37° C., 10 h
# [29] = E. coli BL21, 96-well plate, 37° C., 10 h
# [30] = Pseudomonas aeruginosa, 96-well plate, 37° C., 10 h
# [31] = Proteus vulgaris, 96-well plate, 37° C., 10 h
# [32] = Moraxella catarrhalis, 96-well plate, 37° C., 10 h
# [33] = Klebsiella pneumonia, 10 h cultivation at 37° C.
# [34] = Aeromonas hydrophila, 10 h cultivation at 37° C.
# [35] = Proteus mirabilis, 10 h cultivation at 37° C.
# [36] = Citrobacter diversus, 10 h cultivation at 37° C.
# [37] = Enterobacter cloacae, 10 h cultivation at 37° C.
# [38] = Serratia marcescens, 10 h cultivation at 37° C.
# [39] = Pseudomonas aeruginosa, 10 h cultivation at 37° C.
# [40] = Proteus vulgaris, 10 h cultivation at 37° C.
# [41] = Moraxella catarrhalis, 10 h cultivation at 37° C.
substance,measurement,setting,value
PRT451 (SFYCSCRPGYKLMSDKRTCVDIDE; listed as Homo sapiens),MIC against K. pneumonia,"[1]; 96-well plate, 37° C., 10 h",12.5 µg/mL
same,MIC against A. hydrophila,"[2]; 96-well plate, 37° C., 10 h",50 µg/mL
same,MIC against P. mirabilis,"[3]; 96-well plate, 37° C., 10 h",12.5 µg/mL
same,MIC against C. diversus,"[4]; 96-well plate, 37° C., 10 h",12.5 µg/mL
same,MIC against E. cloacae,"[5]; 96-well plate, 37° C., 10 h",25 µg/mL
same,MIC,[6],25 µg/mL
same,MIC against S. marcescens,"[7]; 96-well plate, 37° C., 10 h",12.5 µg/mL
same,MIC against E. coli BL21,"[8]; 96-well plate, 37° C., 10 h",50 µg/mL
same,MIC against P. aeruginosa,"[9]; 96-well plate, 37° C., 10 h",25 µg/mL
same,MIC against P. vulgaris,"[10]; 96-well plate, 37° C., 10 h",50 µg/mL
same,MIC against M. catarrhalis,"[11]; 96-well plate, 37° C., 10 h",50 µg/mL
PRT435 (DMDECSFSEFLCQHECVNQPGTYFCSCPPGYILLDDNRSCQ; listed as Homo sapiens),MIC,[1]; [12],25 µg/mL
same,MIC,[2]; [13],25 µg/mL
same,MIC,[3]; [14],12.5 µg/mL
same,MIC,[4]; [15],12.5 µg/mL
same,MIC,[5]; [16],12.5 µg/mL
same,MIC,[6],12.5 µg/mL
same,MIC,[7]; [17],50 µg/mL
same,MIC,[8]; [18],25 µg/mL
same,MIC,[9]; [19],12.5 µg/mL
same,MIC,[10]; [20],25 µg/mL
same,MIC,[11]; [21],25 µg/mL
PRT1141 (EINECSSEPCKNNGTCVDLTNRFFCNCEPEYHGPFCE; listed as Homo sapiens),MIC K. pneumonia,[1]; [22],12.5 µg/mL
same,MIC A. hydrophila,[2]; [22],12.5 µg/mL
same,MIC P. mirabilis,[3]; [22],25 µg/mL
same,MIC C. diversus,[4]; [22],25 µg/mL
same,MIC E. cloacae,[5]; [22],50 µg/mL
same,MIC,[6],50 µg/mL
same,MIC S. marcescens,[7]; [22],25 µg/mL
same,MIC E. coli BL21,[8]; [22],12.5 µg/mL
same,MIC P. aeruginosa,[9]; [22],50 µg/mL
same,MIC P. vulgaris,[10]; [22],12.5 µg/mL
same,MIC M. catarrhalis,[11]; [22],50 µg/mL
PRT4 (LDVTCNIKNGRCEQFCKNSADNKVVCSCTEGYRLAENQKSCE; listed as Homo sapiens),MIC (μg/mL) K. pneumonia,[1]; [23],25 µg/mL
same,MIC (μg/mL) A. hydrophila,[2]; [24],25 µg/mL
same,MIC (μg/mL) P. mirabilis,[3]; [25],25 µg/mL
same,MIC (μg/mL) C. diversus,[4]; [26],12.5 µg/mL
same,MIC (μg/mL) E. cloacae,[5]; [27],12.5 µg/mL
same,MIC,[6],25 µg/mL
same,MIC (μg/mL) S. marcescens,[7]; [28],25 µg/mL
same,MIC (μg/mL) E. coli BL21,[8]; [29],50 µg/mL
same,MIC (μg/mL) P. aeruginosa,[9]; [30],25 µg/mL
same,MIC (μg/mL) P. vulgaris,[10]; [31],50 µg/mL
same,MIC (μg/mL) M. catarrhalis,[11]; [32],25 µg/mL
PRT1494 (KALCTPRCMNGGLCVTPGFCICPPGFYGVNCD; listed as Homo sapiens),MIC (μg/mL) K. pneumonia,[1]; [23],12.5 µg/mL
same,MIC (μg/mL) A. hydrophila,[2]; [24],12.5 µg/mL
same,MIC (μg/mL) P. mirabilis,[3]; [25],12.5 µg/mL
same,MIC (μg/mL) C. diversus,[4]; [26],25 µg/mL
same,MIC (μg/mL) E. cloacae,[5]; [27],25 µg/mL
same,MIC,[6],25 µg/mL
same,MIC (μg/mL) S. marcescens,[7]; [28],12.5 µg/mL
same,MIC (μg/mL) E. coli BL21,[8]; [29],12.5 µg/mL
same,MIC (μg/mL) P. aeruginosa,[9]; [30],25 µg/mL
same,MIC (μg/mL) P. vulgaris,[10]; [31],12.5 µg/mL
same,MIC (μg/mL) M. catarrhalis,[11]; [32],25 µg/mL
PRT779 (VSPCSRGYCDHGGQCQHLPSGPRCSCVSFSIYTAWGEHCE; listed as Homo sapiens),MIC (μg/mL) K. pneumonia,[1]; [12],12.5 µg/mL
same,MIC (μg/mL) A. hydrophila,[2]; [13],12.5 µg/mL
same,MIC (μg/mL) P. mirabilis,[3]; [14],50 µg/mL
same,MIC (μg/mL) C. diversus,[4]; [15],50 µg/mL
same,MIC (μg/mL) E. cloacae,[5]; [16],50 µg/mL
same,MIC,[6],12.5 µg/mL
same,MIC (μg/mL) S. marcescens,[7]; [17],50 µg/mL
same,MIC (μg/mL) E. coli BL21,[8]; [18],12.5 µg/mL
same,MIC (μg/mL) P. aeruginosa,[9]; [19],50 µg/mL
same,MIC (μg/mL) P. vulgaris,[10]; [20],12.5 µg/mL
same,MIC (μg/mL) M. catarrhalis,[11]; [21],12.5 µg/mL
PRT1374 (GVRQCPNDCSQHGVCQDGVCICWEGYVSEDC; listed as Homo sapiens),MIC against K. pneumonia,[1]; [33],12.5 µg/mL
same,MIC against A. hydrophila,[2]; [34],12.5 µg/mL
same,MIC against P. mirabilis,[3]; [35],12.5 µg/mL
same,MIC against C. diversus,[4]; [36],12.5 µg/mL
same,MIC against E. cloacae,[5]; [37],25 µg/mL
same,MIC,[6],50 µg/mL
same,MIC against S. marcescens,[7]; [38],12.5 µg/mL
same,MIC against E. coli BL21,[8]; [18],12.5 µg/mL
same,MIC against P. aeruginosa,[9]; [39],25 µg/mL
same,MIC against P. vulgaris,[10]; [40],12.5 µg/mL
same,MIC against M. catarrhalis,[11]; [41],12.5 µg/mL
PRT1484 (DTDECLGTPCQQRCKNSIGSYKCSCRTGFHLHGNRHSCV; listed as Homo sapiens),MIC against K. pneumonia,[1]; [33],12.5 µg/mL
same,MIC against A. hydrophila,[2]; [34],50 µg/mL
same,MIC against P. mirabilis,[3]; [35],50 µg/mL
same,MIC against C. diversus,[4]; [36],25 µg/mL
same,MIC against E. cloacae,[5]; [37],25 µg/mL
same,MIC,[6],50 µg/mL
same,MIC against S. marcescens,[7]; [38],50 µg/mL
same,MIC against E. coli BL21,[8]; [18],12.5 µg/mL
same,MIC against P. aeruginosa,[9]; [39],50 µg/mL
same,MIC against P. vulgaris,[10]; [40],12.5 µg/mL
same,MIC against M. catarrhalis,[11]; [41],12.5 µg/mL
PRT1401 (VCHPRCIEHGTCKDGKCECREGWNGEHCT; listed as Homo sapiens),MIC against K. pneumonia,[1]; [33],25 µg/mL
same,MIC against A. hydrophila,[2]; [34],25 µg/mL
same,MIC against P. mirabilis,[3]; [35],12.5 µg/mL
same,MIC against C. diversus,[4]; [36],12.5 µg/mL
same,MIC against E. cloacae,[5]; [37],12.5 µg/mL
same,MIC,[6],12.5 µg/mL
same,MIC against S. marcescens,[7]; [38],12.5 µg/mL
same,MIC against E. coli BL21,[8]; [18],25 µg/mL
same,MIC against P. aeruginosa,[9]; [39],12.5 µg/mL
same,MIC against P. vulgaris,[10]; [40],25 µg/mL
same,MIC against M. catarrhalis,[11]; [41],25 µg/mL
PRT1466 (CSCHTTGAVNHICNSLTGQCVCQDASIAGQRCDQCKDHYFGFDPQTGRCQP; listed as Homo sapiens),MIC against K. pneumonia,[1]; [33],50 µg/mL
same,MIC against A. hydrophila,[2]; [34],50 µg/mL
same,MIC against P. mirabilis,[3]; [35],25 µg/mL
same,MIC against C. diversus,[4]; [36],12.5 µg/mL
same,MIC against E. cloacae,[5]; [37],12.5 µg/mL
same,MIC,[6],50 µg/mL
same,MIC against S. marcescens,[7]; [38],25 µg/mL
same,MIC against E. coli BL21,[8]; [18],25 µg/mL
same,MIC against P. aeruginosa,[9]; [39],12.5 µg/mL
same,MIC against P. vulgaris,[10]; [40],12.5 µg/mL
same,MIC against M. catarrhalis,[11]; [41],50 µg/mL
